Assay results published in PubChem BioAssay AID248 (DTP/NCI, 2004).
Several values for one entry are separate records, joined by “and”; a condition that tells them apart may be missing. Equal entries are not always repeated. Toxic doses and inconclusive results are not listed. Rule as the data show it: active = T/C of 150% or more; inactive = T/C below 125%.

Test system: L1210 leukemia ip in BDF1 mice, survival T/C
Experiment: NCI In Vivo Anticancer Drug Screen. Data for tumor model L1210 Leukemia (intraperitoneal) in B6D2F1 (BDF1) mice
Conditions: endpoint: mean survival time, higher = longer survival
How it was run: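 Transplanted-tumor mice were given test agent; controls received vehicle only. Survival readings from the two groups were divided (treated over control).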

[1] = dose: 100.0 mg/kg/injection, schedule: Q01DX009 (ip), vehicle: saline with Tween-80
[2] = dose: 200.0 mg/kg/injection, schedule: Q01DX009 (ip), vehicle: saline with Tween-80
[3] = dose: 50.0 mg/kg/injection, schedule: Q01DX001 (ip), vehicle: saline
[4] = dose: 50.0 mg/kg/injection, schedule: Q01DX009 (ip), vehicle: saline
[5] = dose: 75.0 mg/kg/injection, schedule: Q01DX001 (ip), vehicle: saline
[6] = dose: 100.0 mg/kg/injection, schedule: Q01DX001 (ip), vehicle: saline
[7] = dose: 100.0 mg/kg/injection, schedule: Q01DX009 (ip), vehicle: saline
[8] = dose: 150.0 mg/kg/injection, schedule: Q01DX001 (ip), vehicle: saline
[9] = dose: 200.0 mg/kg/injection, schedule: Q01DX001 (ip), vehicle: saline
[10] = dose: 100.0 mg/kg/injection, schedule: Q01DX009 (ip), vehicle: Klucel (hydroxypropylcellulose) (HPC)
[11] = dose: 100.0 mg/kg/injection, schedule: Q04DX003 (ip), vehicle: Klucel (hydroxypropylcellulose) (HPC)
[12] = dose: 200.0 mg/kg/injection, schedule: Q01DX009 (ip), vehicle: Klucel (hydroxypropylcellulose) (HPC)
[13] = dose: 200.0 mg/kg/injection, schedule: Q04DX003 (ip), vehicle: Klucel (hydroxypropylcellulose) (HPC)
[14] = dose: 400.0 mg/kg/injection, schedule: Q04DX003 (ip), vehicle: Klucel (hydroxypropylcellulose) (HPC)
[15] = dose: 100.0 mg/kg/injection, schedule: Q01DX001 (ip), vehicle: Klucel (hydroxypropylcellulose) (HPC)
[16] = dose: 200.0 mg/kg/injection, schedule: Q01DX001 (ip), vehicle: Klucel (hydroxypropylcellulose) (HPC)
[17] = dose: 400.0 mg/kg/injection, schedule: Q01DX001 (ip), vehicle: Klucel (hydroxypropylcellulose) (HPC)
[18] = dose: 400.0 mg/kg/injection, schedule: Q01DX001 (ip), vehicle: saline
[19] = dose: 400.0 mg/kg/injection, schedule: Q01DX009 (ip), vehicle: Klucel (hydroxypropylcellulose) (HPC)
[20] = dose: 100.0 mg/kg/injection, schedule: Q04DX003 (ip), vehicle: saline with Tween-80
[21] = dose: 200.0 mg/kg/injection, schedule: Q04DX003 (ip), vehicle: saline with Tween-80
[22] = dose: 400.0 mg/kg/injection, schedule: Q04DX003 (ip), vehicle: saline with Tween-80
[23] = dose: 400.0 mg/kg/injection, schedule: Q01DX009 (ip), vehicle: saline with Tween-80

Measured: T/C

CCCC(O)(CC)C1CCCC1C (stereo unspecified)
inactive: dose: 50.0 mg/kg/injection, schedule: Q01DX009 (ip), vehicle: saline with Tween-80 105 % of control | [1] 111 % of control | [2] 94 % of control

CCCCCCCCCCNCCC(=O)O
inactive: dose: 12.5 mg/kg/injection, schedule: Q01DX001 (ip), vehicle: saline 94 % of control | dose: 25.0 mg/kg/injection, schedule: Q01DX001 (ip), vehicle: saline 94 % of control | dose: 25.0 mg/kg/injection, schedule: Q01DX009 (ip), vehicle: saline 104 % of control | dose: 37.5 mg/kg/injection, schedule: Q01DX009 (ip), vehicle: saline 104 % of control | [3] 100 % of control | [4] 102 % of control | [5] 101 % of control | dose: 75.0 mg/kg/injection, schedule: Q01DX009 (ip), vehicle: saline 88 % of control | [6] 101 % of control | [7] 104 % of control | [8] 94 % of control

C=CCNCC=C
inactive: [3] 96 % of control | [6] 96 % of control | [9] 98 % of control

CNC(=S)N(N)c1ccccc1
inactive: [10] 104 % of control | [11] 93 % of control | [12] 101 % of control | [13] 103 % of control | [14] 101 % of control

O=C(NCCCl)NC1CCCCC1
inactive: [15] 88 % of control | [16] 89 % of control | [17] 100 % of control

CCOc1cc2cc(C(=O)O)sc2cc1OCC
inactive: [6] 101 % of control | [9] 110 % of control | [18] 104 % of control

O=C(OCC1OCOC1C1OCOC1COC(=O)c1ccccc1)c1ccccc1 (stereo unspecified)
inactive: [6] 96 % of control | [9] 94 % of control | [18] 88 % of control

CCOC(=O)c1nc[nH]c1C
inactive: [10] 103 % of control | dose: 100.0 mg/kg/injection, schedule: Q04DX002 (ip), vehicle: Klucel (hydroxypropylcellulose) (HPC) 98 % of control and 101 % of control | [11] 103 % of control | [12] 100 % of control and 120 % of control | dose: 200.0 mg/kg/injection, schedule: Q04DX002 (ip), vehicle: Klucel (hydroxypropylcellulose) (HPC) 100 % of control and 103 % of control | [13] 103 % of control | [19] 103 % of control and 119 % of control | dose: 400.0 mg/kg/injection, schedule: Q04DX002 (ip), vehicle: Klucel (hydroxypropylcellulose) (HPC) 103 % of control | [14] 98 % of control

O=C1c2ccccc2C2C(=O)c3ccccc3C12 (stereo unspecified)
inactive: [20] 98 % of control | [21] 96 % of control | [22] 95 % of control

NC(=S)N1N=C(c2cccc([N+](=O)[O-])c2)CCC1=O
inactive: [1] 92 % of control | [2] 92 % of control | [23] 101 % of control

Cc1noc(NS(=O)(=O)c2ccc(N=NC3SC(=S)NC3=O)cc2)c1C (stereo unspecified)
inactive: [5] 95 % of control | [8] 98 % of control | dose: 300.0 mg/kg/injection, schedule: Q01DX001 (ip), vehicle: saline 101 % of control

O=CNCc1cnccn1
inactive: [1] 93 % of control | [2] 95 % of control | [23] 97 % of control

O=C(C=C(C(F)(F)F)C(F)(F)F)c1ccccc1[N+](=O)[O-]
inactive: dose: 6.25 mg/kg/injection, schedule: Q01DX009 (ip), vehicle: other 96 % of control | dose: 12.5 mg/kg/injection, schedule: Q01DX009 (ip), vehicle: other 102 % of control | dose: 25.0 mg/kg/injection, schedule: Q01DX009 (ip), vehicle: other 102 % of control

O=[N+]([O-])c1ccc(N2CCCC2)cc1
inactive: [15] 97 % of control | [16] 105 % of control | [17] 108 % of control

Nc1cc([N+](=O)[O-])cnc1NCCc1ccccc1
inactive: [20] 97 % of control | [21] 98 % of control | [22] 104 % of control

NCCCN
inactive: dose: 100.0 mg/kg/injection, schedule: Q04DX003 (ip), vehicle: saline 97 % of control | dose: 200.0 mg/kg/injection, schedule: Q04DX003 (ip), vehicle: saline 98 % of control | dose: 400.0 mg/kg/injection, schedule: Q04DX003 (ip), vehicle: saline 98 % of control

N=c1ncn(C2OC(COP(=O)(O)O)C(O)C2O)c2nc[nH]c12 (stereo unspecified)
inactive: dose: 1.56 mg/kg/injection, schedule: Q01DX005 (ip), vehicle: water 102 % of control | dose: 6.25 mg/kg/injection, schedule: Q01DX005 (ip), vehicle: water 103 % of control | dose: 12.5 mg/kg/injection, schedule: Q01DX005 (ip), vehicle: water 105 % of control | dose: 25.0 mg/kg/injection, schedule: Q01DX005 (ip), vehicle: water 94 % of control

CCC[CH2][Sn]([CH2]C)([CH2]C)[O]C(C)=O
inactive: dose: 5.0 mg/kg/injection, schedule: Q01DX001 (ip), vehicle: saline with Tween-80 90 % of control | dose: 10.0 mg/kg/injection, schedule: Q01DX001 (ip), vehicle: saline with Tween-80 93 % of control

O=C(NCCCl)NC1c2ccccc2CCc2ccccc21
inactive: [10] 94 % of control | [11] 106 % of control | [12] 88 % of control | [13] 105 % of control | [19] 98 % of control | [14] 90 % of control

Nc1nc2ncc(CN(C(=O)C(F)(F)F)c3ccc(C(=O)NC(CCC(=O)O)C(=O)O)cc3)nc2c(=O)[nH]1 (stereo unspecified)
inactive: [15] 100 % of control | [16] 107 % of control | [17] 111 % of control

CC1(C)N=C(N)N=C(N)N1c1cccc(OCCCOc2cccc([N+](=O)[O-])c2)c1
inactive: dose: 5.0 mg/kg/injection, schedule: Q01DX001 (ip), vehicle: saline 100 % of control | dose: 10.0 mg/kg/injection, schedule: Q01DX001 (ip), vehicle: saline 97 % of control | dose: 20.0 mg/kg/injection, schedule: Q01DX001 (ip), vehicle: saline 97 % of control | dose: 40.0 mg/kg/injection, schedule: Q01DX001 (ip), vehicle: saline 100 % of control | dose: 80.0 mg/kg/injection, schedule: Q01DX001 (ip), vehicle: saline 95 % of control

O=C(O)C(Br)CN1C(=O)c2ccccc2C1=O (stereo unspecified)
inactive: [4] 91 % of control | [7] 95 % of control | dose: 200.0 mg/kg/injection, schedule: Q01DX009 (ip), vehicle: saline 91 % of control

CCCCCCCc1nc2c([nH]1)c(=O)n(C)c(=O)n2C
inactive: [3] 98 % of control | [6] 101 % of control | [9] 95 % of control | [18] 116 % of control

O=C1c2cc(Cl)cc(Cl)c2-c2c(NC(=O)C(Cl)Cl)cc(Cl)cc21
inactive: [10] 91 % of control | [11] 95 % of control | [13] 98 % of control | [14] 93 % of control

COC(=O)c1ccccc1NC(=O)NCCBr
inactive: [10] 95 % of control | [11] 103 % of control | [12] 93 % of control | [13] 97 % of control | [19] 93 % of control | [14] 110 % of control
